# Test results from the C3SDB collision cross section collection.
# Tests used:
# [1] = [M+H]+; instrument: TW; Major Mix IMS/Tof Calibration Kit (Waters)
# [2] = instrument: DT, single field, calibrated with Agilent tune mix (Agilent)
# [3] = instrument: DT, stepped-field
# [4] = instrument: DT, stepped-field; remark: listed apart in the source
compound,measurement,setting,value
COc1cc(CCN)c(OC)cc1Br [2C-B],collision cross section (N2),[1],155.6 Å²
COc1cc(CCNCc2ccccc2OC)c(OC)cc1Cl [25C-NBOMe],collision cross section (N2),[1],177.6 Å²
CCCC(=O)Nc1ccc(OCC(O)CNC(C)C)c(C(C)=O)c1 (stereo unspecified) [Acebutolol],collision cross section (N2),[1],190.2 Å²
CC(=O)c1ccc2c(c1)N(CCCN(C)C)c1ccccc1S2 [Acepromazine],collision cross section (N2),[1],176.6 Å²
Cc1nnc2n1-c1ccc(Cl)cc1C(c1ccccc1)=NC2 [Alprazolam],collision cross section (N2),[1],171.5 Å²
CCN(CC)C(C)C(=O)c1ccccc1 (stereo unspecified) [Amfepramone],collision cross section (N2),[1],148 Å²
CCN1CCCC1CNC(=O)c1cc(S(=O)(=O)CC)c(N)cc1OC (stereo unspecified) [Amisulpride],collision cross section (N2),[1],193.1 Å²
CC(C)NCC(O)COc1ccc(CC(N)=O)cc1 (stereo unspecified) [Atenolol],collision cross section (N2),[1],159.5 Å²
CCCCCCCCCCCCCCCCC(=O)N[C@@H](CO)[C@H](O)CCCCCCCCCCCCCCC [Cer(35:0)],collision cross section (N2),[2]; [M+H]+,258.6 Å²
CCCCCCCCCCCCC=CC[C@@H](O)[C@H](CO)NC(=O)CCCCCCCCCCCCCCCC [Cer(35:1)],collision cross section (N2),[2]; [M+H]+,256.3 Å²
CCCCCCCCCCCCC=CC[C@@H](O)[C@H](CO)NC(=O)CC=CCCCCCCCCCCCCCC [Cer(36:2)],collision cross section (N2),[2]; [M+H]+,255.4 Å²
CCCCCCCCCCCCC=CC[C@@H](O)[C@H](CO)NC(=O)CCCCCCCCCCCCCCCCCCC [Cer(38:1)],collision cross section (N2),[2]; [M+HCOO]-,263.4 Å²
same,collision cross section (N2),[2]; [M+H]+,267.3 Å²
same,collision cross section (N2),[2]; [M+Na]+,273.1 Å²
CCCCCCCCCCCCC=CC[C@@H](O)[C@H](CO)NC(=O)CCCCCCCCCCCCCCCCCCCC [Cer(39:1)],collision cross section (N2),[2]; [M+H]+,269 Å²
CCCCCCCCCCCCC=CC[C@@H](O)[C@H](CO)NC(=O)CCCCCCCCCCCCCCCCCCCCC [Cer(40:1)],collision cross section (N2),[2]; [M+HCOO]-,269.4 Å²
same,collision cross section (N2),[2]; [M+H]+,272.3 Å²
CCCCCCCCCCCCC=CC[C@@H](O)[C@H](CO)NC(=O)CCCCCCCCCCCCCCCCCCCCCC [Cer(41:1)],collision cross section (N2),[2]; [M+H]+,275.6 Å²
same,collision cross section (N2),[2]; [M+Na]+,281.6 Å²
CCCCCCCCCCCCC=CC[C@@H](O)[C@H](CO)NC(=O)CCCCCCCCCCCCCCCCCCCCCCC [Cer(42:1)],collision cross section (N2),[2]; [M+H]+,279.3 Å²
same,collision cross section (N2),[2]; [M-H]-,267.7 Å²
CCCCCCCCCCCCC=CC[C@@H](O)[C@H](CO)NC(=O)CC=CCCCCCCCCCCCCCCCCCCCC [Cer(42:2)],collision cross section (N2),[2]; [M+HCOO]-,274.4 Å²
same,collision cross section (N2),[2]; [M+Na]+,278.8 Å²
same,collision cross section (N2),[2]; [M-H]-,266.1 Å²
CCCCCCCCCCCCC=CC[C@@H](O)[C@H](CO[C@@H]1O[C@H](CO)[C@@H](O)C(O)C1O)NC(=O)CCCCCCCCCCCCCCCCCCCCCCCCC (stereo partly specified) [GlcCer(44:1)],collision cross section (N2),[2]; [M+H]+,307.2 Å²
same,collision cross section (N2),[2]; [M+Na]+,308.7 Å²
CCCCCC/C=C\CCCCCCCCC(=O)OC[C@@H](O)COP(=O)([O-])OCC[N+](C)(C)C [LPC(17:1)],collision cross section (N2),[2]; [M+H]+,228.4 Å²
CCCCCCCCCCCCCCCCCCCC(=O)OC[C@@H](O)COP(=O)([O-])OCC[N+](C)(C)C [LPC(20:0)],collision cross section (N2),[3]; [M+H]+,248.6 Å²
same,collision cross section (N2),[3]; [M+Na]+,251.13 Å²
same,collision cross section (N2),[2]; [M+H]+,243.9 Å²
CCCCCCCCCCCCCCCCCC(=O)OC[C@@H](O)COP(=O)(O)OC[C@H](N)C(=O)O [LPS(18:0)],collision cross section (N2),[2]; [M+H]+,228.3 Å²
same,collision cross section (N2),[2]; [M+Na]+,232.1 Å²
CCCCCC/C=C\CCCCCCCC/C=C\OC[C@H](COP(=O)([O-])OCC[N+](C)(C)C)OC(=O)CCCCCCC/C=C\CCCCCC [PC(p34:2)],collision cross section (N2),[2]; [M+H]+,283.3 Å²
CCCCC/C=C\C/C=C\CCCCCCCC(=O)O[C@H](COC(=O)CCCCCCCCC/C=C\CCCCCCCC)COP(=O)(O)OC[C@@H](O)CO [PG(38:3)],collision cross section (N2),[2]; [M-H]-,279.2 Å²
CCCCCC/C=C\CCCCCCCC(=O)OC[C@H](COP(=O)(O)O[C@H]1C(O)C(O)C(O)[C@@H](O)C1O)OC(=O)CCCCCCCCC/C=C\CCCCCCCCCC (stereo partly specified) [PI(38:2)],collision cross section (N2),[2]; [M+H]+,305.1 Å²
same,collision cross section (N2),[2]; [M+NH4]+,306 Å²
same,collision cross section (N2),[2]; [M+Na]+,303.2 Å²
same,collision cross section (N2),[2]; [M-H]-,295.2 Å²
CCCCC/C=C\C/C=C\C/C=C\CCCCCCC(=O)O[C@H](COC(=O)CCCCCCCCCCCCCCCCCC)COP(=O)(O)O[C@H]1C(O)C(O)C(O)[C@@H](O)C1O (stereo partly specified) [PI(39:3)],collision cross section (N2),[2]; [M-H]-,296.5 Å²
CCCCC/C=C\C/C=C\C/C=C\C/C=C\CCCCCC(=O)O[C@H](COC(=O)CCCCCCCCCCCCCCCC)COP(=O)(O)O[C@H]1C(O)C(O)C(O)[C@@H](O)C1O (stereo partly specified) [PI(39:4)],collision cross section (N2),[2]; [M-H]-,295 Å²
CC/C=C\C/C=C\C/C=C\C/C=C\C/C=C\CCCC(=O)OC[C@H](COP(=O)(O)OC[C@H](N)C(=O)O)OC(=O)CCCCC/C=C\C/C=C\C/C=C\C/C=C\CCCCC [PS(42:09)],collision cross section (N2),[4]; [M+2Na-H]+,292.63 Å²
same,collision cross section (N2),[4]; [M+K]+,294.57 Å²
same,collision cross section (N2),[4]; [M-H]-,290.63 Å²
CCCCCCCCCCCCCCC[C@@H](O)[C@H](COP(=O)([O-])OCC[N+](C)(C)C)NC(=O)CCCCCCCCCCCCC [SM(32:0)],collision cross section (N2),[2]; [M+H]+,278.5 Å²
CCCCCCCCCCCCC=CC[C@@H](O)[C@H](COP(=O)([O-])OCC[N+](C)(C)C)NC(=O)CCCCCCCCCCCCCCCC [SM(35:01)],collision cross section (N2),[4]; [M+Na]+,280.61 Å²
CCCCCCCCCCCCC=CC[C@@H](O)[C@H](COP(=O)([O-])OCC[N+](C)(C)C)NC(=O)CCCCCCCCCCCCCCCCCC [SM(37:01)],collision cross section (N2),[4]; [M+H]+,288.67 Å²
same,collision cross section (N2),[4]; [M+Na]+,285.35 Å²
CCCCCCCCCCCCCCCCCCCC(=O)N[C@@H](COP(=O)([O-])OCC[N+](C)(C)C)[C@H](O)CCCCCCCCCCCCCCC [SM(38:00)],collision cross section (N2),[4]; [M+2Na-H]+,294.68 Å²
CCCCCCCCCCCCC=CC[C@@H](O)[C@H](COP(=O)([O-])OCC[N+](C)(C)C)NC(=O)CCCCCCCCCCCCCCCCCCC [SM(38:01)],collision cross section (N2),[4]; [M+Cl]-,294.7 Å²
same,collision cross section (N2),[4]; [M+HCOO]-,296.3 Å²
same,collision cross section (N2),[4]; [M+H]+,292.26 Å²
same,collision cross section (N2),[4]; [M+Na]+,292.18 Å²
CCCCCCCCCCCCC=CC[C@@H](O)[C@H](COP(=O)([O-])OCC[N+](C)(C)C)NC(=O)CCCCCCCCCCCCCCCCCCCC [SM(39:01)],collision cross section (N2),[4]; [M+H]+,295.85 Å²
same,collision cross section (N2),[4]; [M+Na]+,294.58 Å²
CCCCCCCCCCCCC=CC[C@@H](O)[C@H](COP(=O)([O-])OCC[N+](C)(C)C)NC(=O)CCCCCCCCCCCCCCCCCCCCCC [SM(41:01)],collision cross section (N2),[4]; [M+H]+,301.14 Å²
same,collision cross section (N2),[4]; [M+Na]+,299.31 Å²
CCCCCCCCCCCCC=CC[C@@H](O)[C@H](COP(=O)([O-])OCC[N+](C)(C)C)NC(=O)CCCCCCCCCCCCCCCCCCCCCCC [SM(42:01)],collision cross section (N2),[4]; [M+Cl]-,305.77 Å²
same,collision cross section (N2),[4]; [M+HCOO]-,306.96 Å²
same,collision cross section (N2),[4]; [M+H]+,303.17 Å²
same,collision cross section (N2),[4]; [M+Na]+,302.6 Å²
CCCCCCCCCCCCC=CC[C@@H](O)[C@H](COP(=O)([O-])OCC[N+](C)(C)C)NC(=O)CC=CCCCCCCCCCCCCCCCCCCCC [SM(42:02)],collision cross section (N2),[4]; [M+Cl]-,304.71 Å²
same,collision cross section (N2),[4]; [M+HCOO]-,305.63 Å²
same,collision cross section (N2),[4]; [M+H]+,301.43 Å²
same,collision cross section (N2),[4]; [M+Na-H2O]+,301.19 Å²
same,collision cross section (N2),[4]; [M+Na]+,300.53 Å²
CCCCCCCCCCCCC=CC[C@@H](O)[C@H](COP(=O)([O-])OCC[N+](C)(C)C)NC(=O)CC=CCC=CCC=CCCCCCCCCCCCCCC [SM(42:04)],collision cross section (N2),[4]; [M+H]+,297.81 Å²
CCCCCCCCCCCCC=CC[C@@H](O)[C@H](COP(=O)([O-])OCC[N+](C)(C)C)NC(=O)CCCCCCCCCCCCCCCCCCCCCCCCC [SM(44:01)],collision cross section (N2),[4]; [M+H]+,309.76 Å²
same,collision cross section (N2),[4]; [M+Na]+,307.86 Å²
CCCCCCCCCCCCC=CC[C@@H](O)[C@H](COP(=O)([O-])OCC[N+](C)(C)C)NC(=O)CC=CCC=CCCCCCCCCCCCCCCCCCCC [SM(44:03)],collision cross section (N2),[4]; [M+Na]+,304.66 Å²
CCCCC/C=C\CCCCCCCC(=O)OC[C@H](COC(=O)CCCCCCCCCCCCCCCCCC)OC(=O)CCCCCCCCCCCCCCCCCC [TG(53:1)],collision cross section (N2),[2]; [M+NH4]+,325 Å²
CCCCC/C=C\C/C=C\C/C=C\C/C=C\CCCCCC(=O)OC[C@@H](COC(=O)CCCCCCCCCCCC)OC(=O)CCCCCCC/C=C\CCCCCCCCC [TG(54:5)],collision cross section (N2),[2]; [M+NH4]+,322.1 Å²
CCCCCCCCCC/C=C\CCCCCCCCCC(=O)OC[C@@H](COC(=O)CCCCCCCCCCC)OC(=O)CCCCCCCCCCCCCCCCCCCCC [TG(56:1)],collision cross section (N2),[2]; [M+NH4]+,333.6 Å²
CC/C=C\C/C=C\C/C=C\C/C=C\C/C=C\CCCCCC(=O)OC[C@@H](COC(=O)CCCCCCC/C=C\C/C=C\CCCCC)OC(=O)CCCCCC/C=C\C/C=C\C/C=C\CCCCC [TG(60:10)],collision cross section (N2),[2]; [M+NH4]+,334.1 Å²
CCCCCCCC/C=C\CCCCCCCC(=O)OC[C@H](COC(=O)CCCCCCCCC/C=C\CCCCCCCCCC)OC(=O)CCCCCCCCC/C=C\CCCCCCCCCC [TG(62:3)],collision cross section (N2),[2]; [M+NH4]+,346.8 Å²
CCCCC/C=C\C/C=C\C/C=C\C/C=C\CCCCCC(=O)OC[C@@H](COC(=O)CCCCCCC/C=C\CCCCCCCC)OC(=O)CCCCCCCCCCC/C=C\C/C=C\CCCCC [TG(62:7)],collision cross section (N2),[2]; [M+NH4]+,343.6 Å²
CC/C=C\C/C=C\C/C=C\C/C=C\C/C=C\CCCCCC(=O)OC[C@@H](COC(=O)CCCC/C=C\C/C=C\C/C=C\C/C=C\CC)OC(=O)CCCCC/C=C\C/C=C\C/C=C\C/C=C\C/C=C\CC [TG(62:14)],collision cross section (N2),[2]; [M+NH4]+,332.7 Å²
